These molecules were tested on NAD and NADP levels in WT and PPM1Dtrnc. astrocytes (assay: NAD / NADP quantification in astrocytes). Details: PPM1Dtrnc. astrocytes; exogenous NR (50 μM, 24 hrs).
Type: cell-based, human
Experimental: The NAD metabolome was quantitatively analyzed using LC-MS/MS, using two separations on Hypercarb and 13C metabolite standards. Subsequent NAD level analyses were performed using a NAD/NADH Quantification kit (Sigma), as per the manufacturer's specifications. Me/hME-DIP, Bisulfite Conversion, and Global 5-hmC Detection Genomic DNA was purified using the Wizard Genomic DNA purification kit (Promega), and subsequently immunoprecipitated or bisulfite-converted. […] Immunoprecipitated DNA was extracted with phenol/chloroform and analyzed using quantitative PCR (qPCR), as described below. Bisulfite conversion was performed via EpiMark Bisulfite Conversion kit (NEB). Modified DNA was then amplified using EpiMark Hot Start Taq DNA polymerase (NEB), with primers listed in Table 1, and purified with a PCR purification kit (Qiagen). Methylation was then assessed through Sanger-sequencing of the NAPRT promoter. Global 5-hydroxymethylcytosine levels were assessed via the Global 5-hmC quantification kit (Active Motif), according to manufacturer's protocols. Quantitative PCR (qPCR) mRNA transcripts were purified from cells using a RNAeasy kit (Qiagen) and subsequently reverse transcribed using a High Capacity cDNA reverse transcription kit (Applied Biosystems). PPM1D and NAPRT gene expression levels were assessed through qPCR with TaqMan fluorescent probes (all from Applied Biosystems): PPM1D (4331182), NAPRT (4351372), and Actin (4333762F), according to manufacturer's protocol. Expression level fold change was calculated via ΔΔCt comparison, using Actin as a reference gene. The NAPRT promoter region was quantitated via qPCR using Fast Start Universal SYBR Green Master with ROX (Roche), and primers listed in Table 1. All qPCR reactions were run on a StepOnePlus Real Time PCR system (Applied Biosystems).

SMILES | Basal NAD levels
NC(=O)c1ccc[n+]([C@@H]2O[C@H](CO)[C@@H](O)[C@H]2O)c1 [NR, nicotinamide riboside] | sufficiently increased

The molecules below were run on parental and PPM1Dtrnc. immortalized human astrocytes (assay: not given). Details: not given.
Type: cell-based
Experimental: (§1) In vitro cellular viability assessments of immortalized human astrocytes, MCF7, and U2OS cell lines were made using a previously described, high-content, microscopy platform developed by our group. In brief, cells were plated in a 96-well plate at a density of 2000 cells/well, and incubated overnight. Drug treatment or vehicle (0.5% DMSO) control was administered, and cells were incubated for 72-96 hours as indicated. Plates were then washed with PBS and fixed with ice-cold 70% ethanol for 2 hours at 4° C. […] Cells were imaged using a Cytation3 imager (BioTek), and images were stitched and analyzed as described above. Viability assessments were made comparing drug treated to vehicle treated conditions. SU-DIPG and HSJD-DIPG-007 spheroid viability was assessed using CytoTox-Glo (Promega), according to the manufacturer's protocols. Spheroids were treated with FK866 for 120 hours before analysis using this method. IC50 calculations were made using GraphPad Prism, by fitting data to an [inhibitor] vs response−variable slope four parameter nonlinear regression (as depicted in the representative figures). siRNA Transfection and Viability Analysis Individual NAPRT targeting siRNAs were ordered from Dharmacon Inc. (Horizon Discovery), with target sequences listed in Table 1. The panel of siRNAs used for synthetic lethal viability screening was hand-selected and ordered from Dharmacon Inc. and were provided in ON-TARGET plus mixtures, each containing up to four unique siRNAs per gene. 2×10^5 astrocytes were reverse-transfected with different siRNAs (200 nM final concentration), using Lipofectamine RNAiMAX (Invitrogen), according to manufacturer's protocols. For individual siRNAs, cells were incubated for 72 hours, pelleted, and lyzed for immunoblotting. For the siRNA screen, cells were incubated for 24 hours and split to different condition plates, where they were incubated for an additional 24 hours. Cells were then treated with the described doses of FK866, and viability was assessed after 72 hours of drug treatment, using the image-based pipeline described above. Viability measurements were made for each siRNA, and normalized to FK866-untreated conditions.
Given the role of PPM1D in DDR pathways, we performed a small molecule synthetic lethal screen with a panel of inhibitors against key DNA repair and metabolic proteins, using methodology described previously by our group.

SMILES | IC50 ratio (Parental/PPM1Dtrnc.)
O=P1(N(CCCl)CCCl)NCCCO1 (stereo not shown) [Cyclophosphamide] | 0.90

Same assay, conditions: ratio of IC50 in parental astrocytes to IC50 in PPM1Dtrnc. astrocytes; viability

SMILES | IC50 ratio (Parental/PPM1Dtrnc.)
C[C@@]1(CO)[C@H](O)CC[C@@]2(C)[C@H]1CC[C@H]1C[C@@H]3C[C@@]12CC[C@]3(O)CO [Aphidicolin] | 1.75
OCc1ccc(-c2ccc(-c3ccc(CO)s3)o2)s1 [RITA] | 1.27
O=NN(CCCl)C(=O)NC1CCCCC1 [Lomustine] | 1.10
CN(C)CCCNC(=O)c1ccc(-c2cc(O)c3ncccc3c2)cc1 [MLM324] | 1.02
O=c1cc(N2CCOCC2)oc2c(-c3cccc4c3sc3ccccc34)cccc12 [NU-7441] | 1.26
Cn1nnc2c(C(N)=O)ncn2c1=O [TMZ] | 1.37
Cn1c(=O)n(-c2ccc(C(C)(C)C#N)cc2)c2c3cc(-c4cnc5ccccc5c4)ccc3ncc21 [BEZ-235] | 1.01
CC(N[C@H]1C[C@@H]1c1ccccc1)c1ccc2c(c1)OCCO2 (stereo partly shown) [LSD1-C76] | 0.98
CCN1CCN(C(=O)Cc2ccc(Nc3ncc(F)c(Nc4ccc(C(=O)Nc5ccccc5Cl)cc4)n3)cc2)CC1 [TC-S 7010] | 0.78
Cn1ncc2c(N3CCOCC3)nc(-c3cccc(O)c3)nc21 [ETP 45658] | 1.51
C/C(=N\NC(=O)c1cccc(S(=O)(=O)N2CCOCC2)c1)c1cc(Cl)ccc1O [SP2509] | 1.36
CCN1CCN(CC(=O)Nc2ccc(-c3cccc4c(=O)cc(N5CCOCC5)oc34)c3sc4ccccc4c23)CC1 [KU 0060648] | 0.69
Cn1c(CCCC(=O)O)nc2cc(N(CCCl)CCCl)ccc21 [Bendamustine] | 1.07
CO[C@@]12[C@H](COC(N)=O)C3=C(C(=O)C(C)=C(N)C3=O)N1C[C@@H]1N[C@@H]12 [MMC] | 1.08
C[C@@H](CN1CC(=O)NC(=O)C1)N1CC(=O)NC(=O)C1 [Dexrazoxane] | 1.17
NS(=O)(=O)OC[C@@H]1C[C@@H](n2ccc3c(N[C@H]4CCc5ccccc54)ncnc32)C[C@@H]1O [MLN4924] | 0.92
O=C(O)c1ccc(CN2CCC(CN[C@@H]3C[C@H]3c3ccccc3)CC2)cc1 [G5K2879552] | 1.00
CNc1cc(-c2cccc(Cl)c2Cl)nc(N)n1 [TH287] | 1.52
Cn1ncnc1[C@H]1c2n[nH]c(=O)c3cc(F)cc(c23)N[C@@H]1c1ccc(F)cc1 [BMN673] | 0.99
COS(C)(=O)=O [MMS] | 1.28
CC[C@@]1(O)C(=O)OCc2c1cc1n(c2=O)Cc2cc3c(CN(C)C)c(O)ccc3nc2-1 [Topotecan] | 0.99
O=C(c1cc(Cc2n[nH]c(=O)c3ccccc23)ccc1F)N1CCN(C(=O)C2CC2)CC1 [Olaparib] | 1.32
Cc1cc([C@@H](C)Nc2ccccc2C(=O)O)c2nc(N3CCOCC3)cc(=O)n2c1 [AZD6482] | 1.00
NC(=O)Nc1cc(-c2cccc(F)c2)sc1C(=O)N[C@H]1CCCNC1 [AZD7762] | 0.77
CCc1c2c(nc3ccc(OC(=O)N4CCC(N5CCCCC5)CC4)cc13)-c1cc3c(c(=O)n1C2)COC(=O)[C@]3(O)CC [Irinotecan] | 1.01
CNCc1ccc(-c2cc(-c3nc(-c4ccc(S(=O)(=O)C(C)C)cc4)cnc3N)on2)cc1 [VE822] | 0.93
C=CCn1c(=O)c2cnc(Nc3ccc(N4CCN(C)CC4)cc3)nc2n1-c1cccc(C(C)(C)O)n1 [MK-1775] | 0.63
Cc1ccc([N+](=O)[O-])cc1S(=O)(=O)N(C)/N=C/c1cnc2ccc(Br)cn12 [PIK 75] | 0.97
O=c1cc(-c2cccc3c2Sc2ccccc2S3)oc(N2CCOCC2)c1 [KU-55933] | 1.18

The molecules below were run on PPM1Dtrnc. astrocytes (assay: not given). Details: not given.
Experimental: PPM1D^trnc. astrocytes were treated with 50 µg/mL cycloheximide or 1 μM MG132 (both Sigma) for the indicated amount of time. Cells were then washed, pelleted, and lyzed for subsequent immunoblotting approaches, as described above. Quantification of immunoblot intensity was calculated using ImageJ software, and consisted of multiple (n=3) blots. Irradiation of cells was performed using an X-RAD KV irradiator (Precision X-ray), and treatment consisted of an unfractionated, 10 Gy dose. PPM1D inhibitor treatment with GSK2830371 (Selleckchem), consisted of 50 nM treatment, 24 hours prior to IR. FK866 (Selleckchem), GPP78 (Tocris Bioscience), STF118804 (Tocris Bioscience), STF31 (Tocris Bioscience), 5-azacytidine (Selleckchem), and Decitabine (Selleckchem) were dissolved in DMSO and used for treatment as indicated.
as §1

SMILES | Effect on the cytotoxicity of FK866
NC(=O)c1ccc[n+]([C@@H]2O[C@H](CO)[C@@H](O)[C@H]2O)c1 [NR, nicotinamide riboside] | completely mitigated

Same assay, conditions: 72 hr treatment; structurally distinct NAMPT inhibitors

SMILES | NAMPT inhibitor sensitivity of PPM1D mutant astrocytes
Cc1ccc(S(=O)(=O)Cc2nc(-c3ccc(C(=O)NCc4cccnc4)cc3)oc2C)cc1 [STF118804] | confirmed
O=C(CCCCCCCn1cc(-c2cccnc2)nn1)Nc1ccccc1-c1ccccc1 [GPP78] | confirmed
CC(C)(C)c1ccc(S(=O)(=O)NCc2ccc(C(=O)Nc3cccnc3)cc2)cc1 [STF31] | confirmed

Same assay, conditions: PPM1Dtrnc. cells; 72 hr concurrent treatment with FK866

SMILES | Effect on the cytotoxicity of FK866
NC(=O)c1cccnc1 [NAM, nicotinamide] | strongly antagonized

These molecules were tested on PPM1D (γH2AX foci in parental and PPM1Dtrnc. astrocytes) (assay: γH2AX foci formation after ionizing radiation). Details: 10 Gy IR; 50 nM inhibitor 24 hours prior to IR.
Type: cell-based, human
Experimental: Astrocyte cell lines were seeded and incubated overnight, before radiation. Plates were then collected at indicated time points, fixed, permeabilized/blocked, and stained with primary and secondary antibodies for fluorescent imaging. […] Cells were subsequently washed in 1×PBS, followed by a joint permeabilization and blocking step in incubation buffer (5% BSA and 0.5% TritonX100, in PBS) for 1 hour. Primary antibody raised against γH2AX […] (Millipore 05-636) was added at a dilution of 1:1000 in incubation buffer, and incubated overnight at 4° C. Plates were washed, followed by a 1 hour RT incubation with alexafluor-conjugated secondary antibodies (ThermoFisher A21425 or A11029, 1:10,000) and a nuclear dye, […] Hoechst 33342 (Sigma), in secondary buffer (0.5% TritonX100, in PBS). Plates were again washed, and imaged in PBS using the Cytation3 imaging system (BioTek). Images were stitched using Gen5 v2.09 software (BioTek), and both foci and cell numbers were counted using CellProfiler image processing software.

SMILES | Differences in γH2AX foci between parental and PPM1Dtrnc. astrocytes after IR
Cc1ncc(Cl)cc1NCc1ccc(C(=O)N[C@@H](CC2CCCC2)C(=O)NC2CC2)s1 [GSK2830371] | abolished

Reference: patent US20210369681A1, “Identification of PPM1D mutations as a novel biomarker for NAMPTi sensitivity” (YALE UNIVERSITY, priority 2018, published 2021)
